Laboratory results: patent US20240116923A1, “USE OF INDOLE, 6- AND 7-AZAINDOLE DERIVATIVES AS INHIBITORS OF FERROPTOSIS REGULATED CELL DEATH” (Seabelife, priority 2021, published 2024)
Read-outs that look alike come from different tables or passages of the source.

Experiments:
[1] = system: mouse hippocampal neuronal cell line HT22; experiment: Neurotoxicity and excitotoxicity assay, HT22 cells + glutamate, erastin or RSL3, MTS cell viability; type: cell-based; settings: Mus musculus
Protocol: (§1) The excitotoxicity model used was the mouse hippocampal neuronal HT22 cells treated with glutamate [Dixon et al., Cell, 2012, 149(5), 1060-1072]. Ferroptosis and oxidative stress are both associated in this glutamate-induced cell death [Chu et al., Neural Regen. Res., 2020, 15(3), 528-536]. Phenotypic screening was also carried out with additional cell death inducers, erastin and RSL3 ((1S,3R)-Ras-selective lethal), in HT22 and SH-SY5Y (human neuroblastoma cells). Erastin and RSL3 are well described molecules, used as chemical tools for the study of ferroptosis regulation and neuronal pathologies [Lewerenz et al., Front. Neurosci., 2018, 12: 214; Reichert et al., Int. J. Mol. Sci., 2020, 21, 8765].
(§2) Mouse hippocampal neuronal cell line (HT22, ATCC) and human neuroblastoma cell line (SH-SY5Y, ATCC) were grown in Dulbecco's Modified Eagle Medium (DMEM, Gibco) supplemented with 10% fetal bovine serum (FBS, Gibco) at 37° C. under 5% CO2 atmosphere. Neurotoxicity was induced by erastin or RSL3 and excitotoxicity was induced by glutamate. Cells were seeded in 96-well plates at 5,000 and 10,000 cells/well for HT22 and SH-SY5Y cell lines, respectively. Cells were treated with 0.5-1 μM Erastin (HT22 cells) or 10 μM Erastin (SH-SY5Y cells) or 5-10 mM glutamate (HT22 cells) or 0.5 μM RSL3 (HT22 cells) or 5 μM RSL3 (SH-SY5Y cells) for 24 h in presence of increasing concentrations of inhibitors. Cells treated with DMSO only were used as controls. Cell viability was assessed by MTS assay (CellTiter 96 AQueous One Solution Cell Proliferation assay, Promega).
(§3) In FIGS. 1, 2A and 2B, an inhibitor was added to HT22 (FIG. 1: compound 6) or SH-SY5Y (FIG. 2A: compound 6; FIG. 2B: compound 25) cells in the presence or not of cell death inducers (erastin, glutamate or RSL3). […] EC50 values for compounds 1-28 were calculated from dose-response curves using Graphpad Prism software.

[2] = system: human neuroblastoma cell line SH-SY5Y; experiment: Neurotoxicity assay, SH-SY5Y cells + erastin or RSL3, MTS cell viability; type: cell-based; settings: SH-SY5Y cells; for EC50: Homo sapiens, MTS
Protocol: as §1, §2, §3

[3] = HT-22, HT22 cells, 0.5-1 μM Erastin, 24 h, MTS, read-out: EC50 HT22 Erastin
[4] = HT-22, HT22 cells, 5-10 mM glutamate, 24 h, MTS, read-out: EC50 HT22 Glutamate
[5] = 5 μM RSL3, 24 h, read-out: EC50 SH-SY5Y RSL3
[6] = 10 μM Erastin, 24 h, read-out: EC50 SH-SY5Y Erastin
[7] = HT-22, HT22 cells, 0.5 μM RSL3, 24 h, MTS, read-out: EC50 HT22 RSL3

CCOc1ccc(-c2cc3cccn(Cc4ccccc4)c-3n2)cc1 [Compound 26, 7-benzyl-2-(4-ethoxyphenyl)-7H-pyrrolo[2,3-b]pyridine]
EC50 [1, 3]: 12.7 µM | EC50 [1, 4]: 0.82 µM | EC50 [2, 5]: 33.7 µM | EC50 [2, 6]: 9.94 µM

CCOc1ccc(-c2[nH]c3ncccc3c2CN2CCN(C)CC2)cc1 [Compound 16, 2-(4-ethoxyphenyl)-3-((4-methylpiperazin-1-yl)methyl)-1H-pyrrolo[2,3-b]pyridine]
EC50 [2, 6]: > 50 µM

CCOc1ccc(-c2cc3cccn(Cc4ccc(OC)cc4)c-3n2)cc1 [Compound 27, 2-(4-ethoxyphenyl)-7-(4-methoxybenzyl)-7H-pyrrolo[2,3-b]pyridine]
EC50 [1, 7]: 9.93 µM | EC50 [1, 3]: 3.9 µM | EC50 [1, 4]: 1.5 µM | EC50 [2, 6]: 2.46 µM

Cn1c(-c2ccc(O)cc2)cc2ccccc21 [Compound 33, 4-(1-methyl-1H-indol-2-yl)phenol]
EC50 [1, 7]: 10.8 µM | EC50 [1, 3]: 32 µM | EC50 [1, 4]: 16 µM

CCOc1ccc(-c2cc3c(Nc4ccccc4)ccnc3[nH]2)cc1 [Compound 14, 2-(4-ethoxyphenyl)-N-phenyl-1H-pyrrolo[2,3-b]pyridin-4-amine]
EC50 [1, 7]: 0.76 µM | EC50 [1, 3]: 1.52 µM | EC50 [1, 4]: 0.55 µM | EC50 [2, 6]: 1.11 µM

CCOc1ccc(-c2cc3c(Nc4ccc(C(=O)c5ccccc5)cc4)ccnc3[nH]2)cc1 [Compound 11, (4-((2-(4-ethoxyphenyl)-1H-pyrrolo[2,3-b]pyridin-4-yl)amino)phenyl)(phenyl)methanone]
EC50 [1, 7]: 1.16 µM | EC50 [1, 3]: 0.32 µM | EC50 [1, 4]: 0.14 µM | EC50 [2, 6]: 0.15 µM

CCOc1ccc(-c2cc3c(-c4ccc(C(=O)c5ccccc5)cc4)ccn(Cc4ccccc4)c-3n2)cc1 [Compound 28, (4-(7-benzyl-2-(4-ethoxyphenyl)-7H-pyrrolo[2,3-b]pyridin-4-yl)phenyl)(phenyl)methanone]
EC50 [1, 7]: 17.3 µM | EC50 [1, 3]: 23.9 µM | EC50 [1, 4]: 14.8 µM | EC50 [2, 5]: 15.8 µM | EC50 [2, 6]: 31.3 µM

COc1ccc(-c2ccc3cc(-c4ccc(O)cc4)[nH]c3n2)cn1 [Compound 39, 4-(6-(6-methoxypyridin-3-yl)-1H-pyrrolo[2,3-b]pyridin-2-yl)phenol]
EC50 [1, 7]: 16.1 µM | EC50 [1, 3]: 16.1 µM | EC50 [2, 5]: 1.47 µM | EC50 [2, 6]: 5.83 µM

COc1ccc(-c2cc3ccccc3n2O)cc1 [Compound 3, 2-(4-methoxyphenyl)-1H-indol-1-ol]
EC50 [1, 7]: 0.32 µM | EC50 [1, 3]: 0.92 µM | EC50 [1, 4]: 1.13 µM

CCOc1ccc(-c2cc3c(Nc4ccccc4)ccnc3n2S(=O)(=O)c2ccccc2)cc1 [Compound 43, 2-(4-ethoxyphenyl)-N-phenyl-1-(phenylsulfonyl)-1H-pyrrolo[2,3-b]pyridin-4-amine]
EC50 [1, 7]: 2.35 µM | EC50 [1, 3]: 0.53 µM | EC50 [2, 5]: 1.35 µM | EC50 [2, 6]: 1.64 µM

CC(CO)(CO)C(=O)Oc1ccc(-c2cc3cccnc3[nH]2)cc1 [Compound 10, 4-(1H-pyrrolo[2,3-b]pyridin-2-yl)phenyl 3-hydroxy-2-(hydroxymethyl)-2-methylpropanoate]
EC50 [1, 7]: > 50 µM | EC50 [1, 3]: > 25 µM | EC50 [1, 4]: > 25 µM | EC50 [2, 6]: 13.7 µM

CCOc1ccc(-c2cc3ccncc3n2O)cc1 [Compound 5, 2-(4-ethoxyphenyl)-1Hpyrrolo[2,3-c]pyridin-1-ol]
EC50 [1, 7]: 2.79 µM | EC50 [1, 3]: 3.23 µM | EC50 [1, 4]: 3.6 µM | EC50 [2, 6]: 0.52 µM

CCOc1ccc(-c2cc3cccn(C(=O)OCc4ccccc4)c-3n2)cc1 [Compound 25, benzyl 2-(4-ethoxyphenyl)-7H-pyrrolo[2,3-b]pyridine-7-carboxylate]
EC50 [1, 7]: 19 µM | EC50 [1, 3]: 3.39 µM | EC50 [1, 4]: 1.65 µM | EC50 [2, 5]: 5.25 µM | EC50 [2, 6]: 1.4 µM | effect on cell viability without cell death inducers (potential cytotoxic effect of the molecule alone) ([2]; 24 h, doses tested maximum 50 or 100 μM): no effect on cell viability | concentration reaching almost total inhibition of induced cell death ([2]; in the presence of a ferroptosis inducer): 10 µM

CCOc1ccc(-c2[nH]c3ncccc3c2C(O)C(F)(F)F)cc1 (stereo not drawn) [Compound 18, 1-(2-(4-ethoxyphenyl)-1H-pyrrolo[2,3-b]pyridin-3-yl)-2,2,2-trifluoroethan-1-ol]
EC50 [2, 6]: > 50 µM

c1ccc(COc2ccc(-c3cc4ccccc4[nH]3)cc2)cc1 [Compound 31, 2-(4-(benzyloxy)phenyl)-1H-indole]
EC50 ([1]; HT-22, 24 h, read-out: EC50 HT22 Erastin): > 25 µM | EC50 ([1]; HT-22, 24 h, read-out: EC50 HT22 RSL3): > 15 µM
